According to patent US20120142685A1, “ORGANIC COMPOUNDS” (priority 2007, published 2012):

Legend:
protein kinase D2 (PKD2) = target: T1, protein kinase D2 (PKD2) (Homo sapiens, UniProt Q9BZL6); assay: PKD2 TR-FRET (LANCE) kinase assay; assay type: biochemical; conditions: full length wild-type enzyme, 20 μM ATP; read-out: Inhibitory Activity PKD2
T1 construct: This assay is performed with full length wild-type enzyme purchase from Invitrogen; purchased Invitrogen
T1 sequence (Q9BZL6 1-878): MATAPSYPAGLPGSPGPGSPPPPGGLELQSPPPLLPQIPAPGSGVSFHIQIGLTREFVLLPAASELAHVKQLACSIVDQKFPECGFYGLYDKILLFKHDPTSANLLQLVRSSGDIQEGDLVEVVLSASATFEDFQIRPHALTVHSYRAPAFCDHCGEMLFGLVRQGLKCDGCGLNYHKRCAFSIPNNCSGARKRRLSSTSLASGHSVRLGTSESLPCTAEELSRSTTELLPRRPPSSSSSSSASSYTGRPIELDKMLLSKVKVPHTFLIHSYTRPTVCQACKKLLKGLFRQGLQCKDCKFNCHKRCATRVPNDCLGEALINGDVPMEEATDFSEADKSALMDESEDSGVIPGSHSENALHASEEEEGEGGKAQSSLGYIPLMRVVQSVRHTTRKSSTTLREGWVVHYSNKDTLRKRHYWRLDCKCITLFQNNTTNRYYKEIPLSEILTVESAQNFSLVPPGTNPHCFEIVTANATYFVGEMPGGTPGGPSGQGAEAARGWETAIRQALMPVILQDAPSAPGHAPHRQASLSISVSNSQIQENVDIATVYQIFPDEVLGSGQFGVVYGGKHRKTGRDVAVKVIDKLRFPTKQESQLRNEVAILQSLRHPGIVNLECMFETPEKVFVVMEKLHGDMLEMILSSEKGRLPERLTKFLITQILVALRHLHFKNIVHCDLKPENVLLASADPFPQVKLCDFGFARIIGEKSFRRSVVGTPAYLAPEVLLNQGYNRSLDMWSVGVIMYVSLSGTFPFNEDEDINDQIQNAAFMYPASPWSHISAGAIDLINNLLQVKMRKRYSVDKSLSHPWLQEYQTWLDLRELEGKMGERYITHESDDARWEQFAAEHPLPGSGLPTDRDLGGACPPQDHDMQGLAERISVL
Text: (§1) The assay to measure protein kinase D2 (PKD2) activity is a time-resolved fluorescence resonance transfer (TR-FRET) assay using PerkinElmer's LANCE™ technology. In this case, a biotinylated syntide-2 peptide is used as the substrate in this reaction. Phosphorylation of the syntide-2 substrate is detected by a specific antibody that recognizes the phosphorylated peptide. A second fluorophore, APC, is conjugated to streptavidin that binds the biotinylated syntide-2 peptide. […] Therefore, when the europium labeled secondary antibody binds on the phosphorylated peptide, it is brought into close contact with the APC and excites this fluorophore.
(§2) This assay is performed with full length wild-type enzyme purchase from Invitrogen. The reaction buffer consists of 35 mM Tris-HCl pH7.5, 5 mM MgCl2, 0.02% Tween-20, 20 μM ATP, 1 mM DTT and 0.2 μg/mL PKD2 enzyme. The enzyme reaction is initiated by the addition of 2 μM syntide-2 peptide substrate and the reaction carried out for 50 minutes at room temperature. The reaction is stopped by a stop/detection buffer consisting of 50 mM EDTA, 0.18 mg/mL rabbit polyclonal anti-phospho syntide-2 antibody, 0.5 nM europium labeled anti-rabbit IgG and 10 nM streptavidin conjugated APC. After a one hour incubation with the stop/detection buffer, the reaction is read on an Envision 2100 Reader using a LANCE™ Eu/APC dual protocol. […] IC50 values are calculated using an Activity Base (IDBS) software program.

protein kinase D3 (PKD3) = target: T2, protein kinase D3 (PKD3) (Homo sapiens, UniProt O94806); assay: PKD3 TR-FRET (LANCE) kinase assay; assay type: biochemical; conditions: full length wild-type enzyme, 20 μM ATP; read-out: Inhibitory Activity PKD3
T2 construct: This assay is performed with full length wild-type enzyme that is purchased from Invitrogen; purchased Invitrogen
T2 sequence (O94806 1-890): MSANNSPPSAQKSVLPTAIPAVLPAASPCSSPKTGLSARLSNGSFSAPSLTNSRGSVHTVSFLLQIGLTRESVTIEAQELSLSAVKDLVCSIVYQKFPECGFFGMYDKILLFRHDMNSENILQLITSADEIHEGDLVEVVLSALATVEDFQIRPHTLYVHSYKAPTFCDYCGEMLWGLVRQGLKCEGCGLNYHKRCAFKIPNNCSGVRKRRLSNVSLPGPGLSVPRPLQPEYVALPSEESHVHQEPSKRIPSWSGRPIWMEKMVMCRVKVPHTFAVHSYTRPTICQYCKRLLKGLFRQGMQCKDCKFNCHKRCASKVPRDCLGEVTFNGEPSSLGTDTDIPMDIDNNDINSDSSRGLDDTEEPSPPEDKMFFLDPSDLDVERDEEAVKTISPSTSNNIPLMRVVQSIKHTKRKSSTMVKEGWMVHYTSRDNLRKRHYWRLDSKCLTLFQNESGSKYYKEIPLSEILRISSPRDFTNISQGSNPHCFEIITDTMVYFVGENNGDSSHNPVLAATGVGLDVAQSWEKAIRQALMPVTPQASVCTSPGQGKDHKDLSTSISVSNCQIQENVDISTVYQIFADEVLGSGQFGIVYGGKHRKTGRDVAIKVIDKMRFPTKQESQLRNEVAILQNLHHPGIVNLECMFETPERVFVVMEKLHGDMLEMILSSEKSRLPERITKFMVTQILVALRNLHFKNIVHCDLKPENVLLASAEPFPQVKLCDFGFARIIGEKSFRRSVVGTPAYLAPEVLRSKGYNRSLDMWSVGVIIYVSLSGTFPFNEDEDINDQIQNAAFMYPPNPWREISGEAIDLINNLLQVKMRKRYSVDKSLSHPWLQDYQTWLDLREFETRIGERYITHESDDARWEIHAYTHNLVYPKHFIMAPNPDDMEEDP
Text: as §1, with “D3 (PKD3)” for “D2 (PKD2)”
as §2, with “that is purchased” for “purchase”, “PKD3” for “PKD2”, “LANCET™” for “LANCE™”

An IC50 (protein kinase D2 (PKD2)) of 903 nM and an IC50 (protein kinase D3 (PKD3)) of 227 nM were found for `CNc1cc(-c2cc3cnccc3c(NCCCO)n2)ccn1` [Example 1] in this work.
